Series [1] in a line: Plasma stability, mouse plasma. It is filed as in vitro ADME. Particulars: for mouse pl. T1/2: 37° C.; for remaining at 24 h, 10 μM: 1440 min, read-out: mouse pl. cpd left at 1440 min. The procedure:
The stability of the peptides in human and mouse plasma was determined by applying the following method: 346.5 μL/deep well of freshly thawed human plasma (Basler Blutspende-dienst) and mouse plasma (Harlan Sera-Lab, UK), respectively, were spiked with 3.5 μL/well of compound dissolved in DMSO/H2O (90/10 [v/v], 1 mM, triplicate) and incubated at 37° C. At t=0, 15, 30, 60, 120, 240 and 1440 min aliquots of 50 μL were transferred to filtration plate wells containing 150 μL/well of 2% formic acid in acetonitrile. Following shaking for 2 min the occurred suspensions were filtrated by vacuum. 100 μL of each filtrate were transferred to a propylene microtiter plate and dried under N2. The residual solids were reconstituted by adding 100 μL/well of water/acetonitrile, 95/5 (v/v)+0.2% formic acid and analyzed by LC/MS as follows: Column: Waters, XBridge C18, mobile phases: (A) water+0.1% formic acid and (B) acetonitrile/water, 95/5 (v/v)+0.1% formic acid, gradient: 5%-100% (B) in 1.8 minutes, electrospray ionization, MRM detection (triple quadrupole). The peak areas were determined and triplicate values are averaged. The stability is expressed in percent of the initial value at t=0. (tx/t0×100). By using the TREND function of EXCEL (Microsoft Office 2003) T1/2 were determined.

Series [2] in a line: Pharmacokinetic study (PK) after intravenous administration. It is filed as in vivo, male CD-1 mice. The settings on record: mouse, i.v. 1 mg/kg; for AUC(0-inf) / Cmax / half-life / clearance / Vd: one-compartmental model; for clearance: read-out: CLiv (converted); for Vd: read-out: Vdis. The procedure: For the compounds of Ex. 1 and Ex. 2 pharmacokinetic studies after intravenous (i.v.) administration were performed.
30 grams (±20%) male CD-1 mice obtained from Charles River Laboratories Deutschland GmbH were used. The vehicle, phosphate buffered saline, was added to give a final concentration of 0.5 mg/mL of the compound. The volume was 2 mL/kg and the compound was injected to give a final intravenous dose of 1 mg/kg. Approximately 300-400 μL of blood was removed under light isoflurane anesthesia by cardiac puncture at predetermined time intervals (5, 15, 30 min and 1, 2, 3, 4, hours) and added to heparinized tubes. Plasma was removed from pelleted cells upon centrifugation and frozen at −80° C. prior to HPLC-MS analysis.
Aliquots of 50 μL each of mouse plasma of untreated aminals (“blank” mouse plasma) were spiked with known amounts of the compounds Ex. 1 and Ex. 2 in order to obtain 10 plasma calibration samples for each compound in the range 1-4000 ng/mL.
Aliquots of 50 μL each of mouse plasma from treated animals were used as plasma study samples.
All plasma samples were spiked with an appropriate internal standard and extracted with acetonitrile containing 2% formic acid. Supernatants were evaporated to dryness under nitrogen and the remaining solids reconstituted in water+0.2% formic acid/acetonitrile 95/5 (v/v).
Extracts were then analyzed by reverse-phase chromatography (Acquity HSS C18 SB, 100×2.1 mm, 1.8 μm column, Waters), using the following conditions: mobile phases: (A) water+0.1% formic acid/acetonitrile 95/5 (v/v), (B) aceto-nitrile/water+0.1% formic acid 95/5 (v/v), gradient: 1% (B) 0-0.1 min, 40% (B) 0.1-2.5. The detection and quantification was performed by mass spectrometry, with electrospray interface in positive mode and selective fragmentation of analytes (4000 Q Trap mass spectrometer, AB Sciex).
PK parameters were calculated by WinNonLin™ software version 5.3 (Pharsight-A Certara™ Company, Mountain View, Calif. 94041 USA) using a one-compartmental model analysis. PK parameters were determined by least-square fitting of the model to the experimental data.

The nature of series [3]: Drug loading calculations via maintenance dose rate. Particulars: CLiv-mouse scaled by 0.127 (GFR human/mouse). The procedure: The drug load for an implant comprising a peptide of the invention was calculated following the basic principles in pharmacokinetics (see also J. Gabrielsson, D. Weiner, “Pharmacokinetics and Pharmaco-dynamics Data Analysis: Concepts and Applications”, 4th edition, Swedish Pharmaceutical Press, Stockholm, Sweden, 2006) whereby the maintenance dose rate (rate of infusion, Rin) can be defined as the rate at which a drug is to be administered to reach a steady state of a certain dose in the plasma. The maintenance dose rate can be expressed using the correlation Rin [g/(h*kg)]=CLiv, [L/(h*kg)]×Css,eff [g/L], wherein CLiv, is the clearance (i.v.—admin.) and Css,eff the effective concentration of the drug in the plasma at steady state considering an efficacy margin A: Css,eff[g/L]=A×(IC50/fu)×MW [(Mol/L)*(g/Mol)]. Therefore, the total amount of a drug loaded into an implant providing for a constant effective concentration of that drug in the plasma for a certain period of time in a subject of a certain body weight can be calculated by applying the following correlation: Drugload [g/subject]=Rin [g/(h*kg)]×duration [h]×BW [kg/subject].
Further pre-conditions are an efficacy margin of A=3, a study duration of 672 h (28 days) and a body weight of a human subject of 70 kg. […]

Setting [4] is: male, CD-1, plasma, iv, read-out: Calc. Conc. (plasma).

This is an account of results in patent US10363284B2, “β-hairpin peptidomimetics” (POLYPHOR AG, priority 2012, dated 2019).

Molecules are shown by their SMILES. Positions of bridges follow the written chain, without caps; N, C: chain ends. Non-standard residues stand in square brackets, D forms with d. Residues, ends and D or L forms follow the SMILES beside them. dLys(iPr) = CC(C)NCCCC[C@@H](N)C(=O)O; Lys(iPr) = CC(C)NCCCC[C@H](N)C(=O)O; Orn(iPr) = CC(C)NCCC[C@H](N)C(=O)O; Ac3c = NC1(C(=O)O)CC1 Some results are limits rather than exact numbers.

Broadly, the AUC(0-inf) is the area under the concentration-time curve extrapolated to infinity. Low readings indicate less exposure, high ones more exposure. What is called Cmax is the peak of the concentration-time curve. A word on the half-life: it is the time in which the quantity being followed falls by half. Lower therefore signals rapid decline. For `CC(C)NCCCC[C@@H]1NC(=O)[C@H](CCC(N)=O)NC(=O)[C@H](Cc2ccc(O)cc2)NC(=O)[C@@H]2CSSC[C@H](NC(=O)[C@H](Cc3ccc(O)cc3)NC(=O)[C@H](Cc3c[nH]cn3)NC(=O)[C@H](Cc3ccc(O)cc3)NC(=O)[C@@H]3CCCN3C(=O)[C@@H](CCCCNC(C)C)NC1=O)C(=O)N[C@@H](CO)C(=O)N[C@@H](C)C(=O)N1CCC[C@@H]1C(=O)N[C@@H](CCCNC(C)C)C(=O)N[C@@H](CCCNC(=N)N)C(=O)N[C@@H](Cc1ccc(O)cc1)C(=O)N2` [Ex. 1, cyclo(-Tyr^1-His^2-Tyr^3-Cys^4-Ser^5-Ala^6-^DPro^7-Orn(iPr)^8-Arg^9-Tyr^10-Cys^11-Tyr^12-Gln^13-Lys(iPr)^14-^DLys(iPr)^15-Pro^16-), disulfide bond between Cys^4 and Cys^11] (cyclo(A[dP][Orn(iPr)]RYCYQ[Lys(iPr)][dLys(iPr)]PYHYCS); disulfide 6-15), in series [1], the “mouse pl. T1/2” value was found to be 1440 min and the remaining at 24 h, 10 μM was determined as 100%. In series [2] (male, CD-1, plasma, iv), the AUC(0-inf) amounted to 1020 ng·h/mL, the highest level (Cmax) was 1880 ng/mL, the half-life is 24 min and the clearance was 16.4 mL/min/kg. Besides, the Vd in series [2] (male, CD-1, plasma, iv) is 0.532 L/kg. Besides, in series [2] (setting [4]), the level at 0.083 h was 1690 ng/mL, the level at 0.25 h was 1050 ng/mL, the level at 0.5 h was 749 ng/mL and the level at 1 h was 385 ng/mL. Further, in series [2] (setting [4]), the level at 2 h is 61 ng/mL. Besides, in series [2] (time 3 h), the “Calc. Conc. (plasma)” value is “<LoQ”. For the same molecule, in series [2] (time 4 h), the “Calc. Conc. (plasma)” value was “<LoQ”. Besides, the “CLiv, human (allometric scaled)” value in series [3] is given as 125 mL/h/kg.
For `CC(C)NCCCC[C@@H]1NC(=O)[C@H](CCC(N)=O)NC(=O)[C@H](Cc2ccc(O)cc2)NC(=O)[C@@H]2CSSC[C@H](NC(=O)[C@H](Cc3ccc(O)cc3)NC(=O)[C@H](Cc3c[nH]cn3)NC(=O)[C@H](Cc3ccc(O)cc3)NC(=O)[C@@H]3CCCN3C(=O)[C@H]3CCCN3C1=O)C(=O)N[C@@H](CO)C(=O)NC1(CC1)C(=O)N1CCC[C@@H]1C(=O)N[C@@H](CCCNC(C)C)C(=O)N[C@@H](CCCNC(=N)N)C(=O)N[C@@H](Cc1ccc(O)cc1)C(=O)N2` [Ex. 2, cyclo(-Tyr^1-His^2-Tyr^3-Cys^4-Ser^5-Acc^6-^DPro^7-Orn(iPr)^8-Arg^9-Tyr^10-Cys^11-Tyr^12-Gln^13-Lys(iPr)^14-^DPro^15-Pro^16-), disulfide bond between Cys^4 and Cys^11] (cyclo(YHYCS[Ac3c][dP][Orn(iPr)]RYCYQ[Lys(iPr)][dP]P); disulfide 4-11), in series [1], the “mouse pl. T1/2” value was 1440 min and the remaining at 24 h, 10 μM worked out at 100%. In addition, in series [2] (male, CD-1, plasma, iv), the AUC(0-inf) is 1460 ng·h/mL, the Cmax turned out to be 1470 ng/mL, the half-life was 42 min and the clearance was 11.4 mL/min/kg. Also, the Vd in series [2] (male, CD-1, plasma, iv) turned out to be 0.681 L/kg. Moreover, in series [2] (setting [4]), the level at 0.083 h is 1250 ng/mL, the level at 0.25 h is 1210 ng/mL, the level at 0.5 h was 996 ng/mL and the level at 1 h was 516 ng/mL. For the same molecule, the level at 2 h in series [2] (setting [4]) is 117 ng/mL. Further, the level at 3 h in series [2] (male, CD-1, plasma, iv, time 3 h, read-out: Calc. Conc. (plasma)) was 24 ng/mL. The level at 4 h in series [2] (male, CD-1, plasma, iv, time 4 h, read-out: Calc. Conc. (plasma)) is 14 ng/mL. Also, in series [3], the “CLiv, human (allometric scaled)” value is 87 mL/h/kg.
